# Columns and labels:
# [1] = rat, in vivo
# [2] = molecular target: T1, intestinal Na-phosphate cotransporter (Rattus norvegicus, UniProt Q9JJ09); assay type: biochemical; parameters: other: intestinal BBMV; 3-second exposure of vesicles and substra; 2′-FPP vs 2′-PP; settings: read-out: IC50 for inhibition of Na-dependent phosphate uptake
# T1 sequence (Q9JJ09 1-695): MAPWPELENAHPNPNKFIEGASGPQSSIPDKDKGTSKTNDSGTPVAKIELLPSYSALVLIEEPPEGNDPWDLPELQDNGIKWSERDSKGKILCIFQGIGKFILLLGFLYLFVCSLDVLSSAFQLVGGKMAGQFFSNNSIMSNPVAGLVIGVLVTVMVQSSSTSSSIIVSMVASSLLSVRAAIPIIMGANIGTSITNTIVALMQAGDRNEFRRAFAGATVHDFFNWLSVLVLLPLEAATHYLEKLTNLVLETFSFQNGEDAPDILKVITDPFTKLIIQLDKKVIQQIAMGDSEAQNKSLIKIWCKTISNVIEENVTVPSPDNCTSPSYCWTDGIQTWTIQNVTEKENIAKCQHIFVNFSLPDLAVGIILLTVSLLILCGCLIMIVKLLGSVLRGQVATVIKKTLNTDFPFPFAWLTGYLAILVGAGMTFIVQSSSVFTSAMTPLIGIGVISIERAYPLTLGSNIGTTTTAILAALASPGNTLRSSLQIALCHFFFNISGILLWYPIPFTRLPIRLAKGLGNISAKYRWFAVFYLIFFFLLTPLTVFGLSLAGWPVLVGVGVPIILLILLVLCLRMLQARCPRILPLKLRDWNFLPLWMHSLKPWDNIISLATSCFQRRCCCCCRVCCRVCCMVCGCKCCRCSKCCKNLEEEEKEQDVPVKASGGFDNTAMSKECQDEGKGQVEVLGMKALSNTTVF
# Glucose uptake = assay type: cell-based, rat
# [3] = molecular target: T2, intestinal brush border membrane Na/phosphate cotransporter, NaPi 2b (Rattus norvegicus, UniProt Q9JJ09); experiment: cell-based; assay type: cell-based
# T2 construct: Rat duodenum/jejunum intestinal strips 1 cm square were incubated in DMEM; from tissue; host or cells: rat duodenum/jejunum intestinal strips
# T2 sequence (Q9JJ09 1-695): T1 sequence (Q9JJ09 1-695)
# [4] = test system: intestinal BBMV phosphatases; assay type: biochemical
# [5] = molecular target: T1, intestinal Na-phosphate cotransporter; assay type: biochemical
# rat alkaline phosphatase = experiment: p-nitrophosphate hydrolysis by rat alkaline phosphatase; assay type: biochemical
# Protocol: The results shown in Example A used a 3-second exposure of vesicles and substrates and a 5 minute exposure of vesicles to 2′-FPP. Prior exposure and degradation of 2′-PP in contrast to 2′-FPP could be contributing to the increased potency of 2′-FPP as compared to 2′-PP. To examine this possibility the effect of phosphophloretins on p-nitrophosphate hydrolysis by rat alkaline phosphatase and intestinal BBMV phosphatases was examined.
# [6] = rat, in vivo; remark: listed apart in the source
structure (smiles),measurement,setting,value
O=C(CCc1ccc(O)cc1)c1c(O)cc(O)cc1OP(=O)(O)O,change in serum Ca2+,[1],no change
same,decrease in serum phosphorus,[1],30%
same,IC50,[2],0.046 µM
same,Glucose uptake,Glucose uptake,unaffected
same,IC50,[3],15 µM
same,Maximum inhibition of total phosphate absorption,[3],43±6%
same,inhibition of phosphate uptake,[3],40%
same,inhibition of phosphate uptake 6 hours post-drug exposure,[3],less than 35%
same,inhibition of intestinal BBMV phosphatase activity,[4],approximately 50%
same,decrease of IC50 on addition of alkaline phosphatase inhibitors,[5],34%
same,"inhibition of alkaline phosphatase activity, compared with 2′-FPP",rat alkaline phosphatase,better inhibitor
same,side effects,[6],no side effects

# From patent US9328128B2 (priority 2010, dated 2016)
